Results: US20080004272A1, “Compositions and methods for modulating gated ion channels” (PainCeptor Pharma Corporation, priority 2006, published 2008)

Key:
[1] = molecular target: T1, ASIC1a (Homo sapiens, UniProt P78348); experiment: Calcium imaging of MES-induced calcium response (FLIPR); format: cell-based; design: host or cells: HEK293; details: ASIC1a expressing HEK293 cells, MES-induced calcium response; read-out: IC50 (FLIPR)
T1 sequence (P78348 1-528): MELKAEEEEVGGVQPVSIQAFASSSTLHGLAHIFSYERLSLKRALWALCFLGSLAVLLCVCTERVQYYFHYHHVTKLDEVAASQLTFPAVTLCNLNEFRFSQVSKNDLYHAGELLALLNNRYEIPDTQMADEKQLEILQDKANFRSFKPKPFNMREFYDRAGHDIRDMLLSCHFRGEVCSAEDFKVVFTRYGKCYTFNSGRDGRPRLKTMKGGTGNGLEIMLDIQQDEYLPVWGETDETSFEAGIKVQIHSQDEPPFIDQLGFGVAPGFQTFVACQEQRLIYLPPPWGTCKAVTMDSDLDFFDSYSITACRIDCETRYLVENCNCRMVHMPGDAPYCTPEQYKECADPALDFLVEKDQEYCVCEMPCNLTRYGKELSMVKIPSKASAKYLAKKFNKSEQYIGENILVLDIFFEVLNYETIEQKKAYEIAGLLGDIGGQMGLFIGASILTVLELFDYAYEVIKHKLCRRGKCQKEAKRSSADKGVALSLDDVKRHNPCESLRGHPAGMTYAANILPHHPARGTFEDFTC

[2] = molecular target: T1, ASIC1a; experiment: Two-electrode voltage clamp in Xenopus laevis oocytes (Xo), acid-induced currents; format: cell-based; design: expressed in transfected cells; host or cells: Xenopus laevis oocytes (nuclear microinjection of expression vector such as pcDNA3); details: Xenopus oocytes; for inhibition at 50 µM: read-out: % inh. at 50 μM (Xo); for inhibition at 100 µM: read-out: % inh. at 100 μM (Xo)
Protocol: Two-electrode voltage clamp electrophysiological assays in Xenopus laevis oocytes expressing gated ion channels are performed as follows:
Oocytes are surgically removed from adult Xenopus laevis and treated for 2 h at room temperature with 1 mg/ml type I collagenase (Sigma) in Barth's solution under mild agitation. Selected oocytes at stage IV-V are defolliculated manually before nuclear microinjection of 2.5-5 ng of a suitable expression vector, such as pcDNA3, comprising the nucleotide sequence encoding a gated ion channel subunit protein. In such an experiment, the oocytes express homomultimeric proton-gated ion channels on their surface. In an alternate experiment, one, two, three or more vectors comprising the coding sequences for distinct gated ion channel subunits are co-injected in the oocyte nuclei. In the latter case, oocytes express heteromultimeric proton-gated ion channels. For example, ASIC2a and/or ASIC3 subunits in pcDNA3 vector are co-injected at a 1:1 cDNA ratio. After 2-4 days of expression at 19° C. in Barth's solution containing […] gentamicin and 1.8 mM CaCl2, gated ion channels are activated by applying an acidic solution (pH<7) and currents are recorded in a two electrode voltage-clamp configuration, using an OC-725B amplifier (Warner Instruments). Currents are acquired and digitized at 500 Hz on an Apple Imac G3 computer with an A/D NB-MIO-16XL interface (National Instruments) and recorded traces are post-filtered at 100 Hz in Axograph (Axon Instruments) (Neher, E. and Sakmann, B. (1976) Nature 260:799-802). Once impaled with the microelectrodes, oocytes are continuously superfused at 10-12 ml/min with a modified Ringer's solution containing 97 mM NaCl, 2 mM KCl, 1.8 mM CaCl2, and 10 mM HEPES brought to pH 7.4 with NaOH (Control Ringer). Test Ringer solution is prepared by replacing HEPES with MES and adjusting the pH to the desired acidic value. Compounds of the present invention are prepared in both the Control and Test Ringer solutions and applied to oocytes at room temperature through a computer-controlled switching valve system. Osmolarity of all solutions is adjusted to 235 mOsm with choline chloride. Similarly, recordings can also be acquired in an automated multichannel oocytes system as the OpusExpress™ (Molecular Devices, Sunnyvale, USA).
FIGS. 1A and 2A illustrate the inhibitory effects of Compounds 203 and 206 on acid-induced activation of recombinant homomeric hASIC1a channels.

IC50 [1]	inhibition at 50 µM [2]	inhibition at 100 µM [2]	Compound
> 70 µM	< 25%	–	CN(C)/C=C1/C(=O)Nc2c1cc(-c1ccccc1)c1c2CN(C)CC1 [Compound 95]
> 70 µM	< 25%	–	Cc1nc2c3c(c(-c4ccccc4)cc2c(=O)o1)CCN(C)C3 [Compound 97]
> 70 µM	20 to 40%	–	CN1CCc2c(-c3ccccc3)cc3c(=O)[nH]c(=O)[nH]c3c2C1 [Compound 98]
> 70 µM	< 25%	–	CN1CCc2c(-c3ccccc3)cc3[nH]c(=O)[nH]c3c2C1 [Compound 99]
20 to 40 µM	> 50%	–	CN1CCc2c(-c3ccccc3)cc3c(c2C1)NC(=O)/C3=N/N [Compound 102]
40 to 60 µM	< 25%	–	CN1CCc2c(-c3ccccc3)cc3c(c2C1)NC(=O)/C3=N\NC(N)=O [Compound 103]
> 70 µM	30 to 50%	–	CN1CCc2c(-c3ccccc3)cc3c(c2C1)NC(=O)/C3=N/NC(N)=S [Compound 104]
20 to 40 µM	20 to 30%	–	[H]/N=C(\N)N/N=C1/C(=O)Nc2c1cc(-c1ccccc1)c1c2CN(C)CC1 [Compound 105]
> 70 µM	< 25%	–	COc1ccc(NC(=O)NCc2ccc(-c3ccccc3)c3c2CN(C)CC3)cc1 [Compound 117]
> 70 µM	< 25%	–	CN1CCc2c(-c3ccccc3)ccc(CNCC(=O)O)c2C1 [Compound 119]
> 70 µM	< 25%	–	CCOC(=O)N1CCc2c(-c3ccccc3)ccc(CN)c2C1 [Compound 120]
> 70 µM	< 25%	–	CCOC(=O)CNCc1ccc(-c2ccccc2)c2c1CN(C(=O)OCC)CC2 [Compound 121]
> 70 µM	< 25%	–	CCOC(=O)C(=O)Nc1ccc(-c2ccccc2)c2c1CN(C(=O)OCC)CC2 [Compound 125]
> 70 µM	< 25%	–	CN1CCc2c(-c3ccccc3)ccc(NCC(=O)O)c2C1 [Compound 127]
> 70 µM	< 25%	–	CN1CCc2c(-c3ccccc3)cc(C#N)c(NC(=O)OC(C)(C)C)c2C1 [Compound 130]
> 70 µM	< 25%	–	CN1CCc2c(-c3ccccc3)ccc(NC(=O)CCC(=O)O)c2C1 [Compound 134]
> 70 µM	< 25%	–	O=[N+]([O-])c1ccc(-c2ccccc2)c2ccncc12 [Compound 135]
> 70 µM	< 25%	–	Nc1ccc(-c2ccccc2)c2ccncc12 [Compound 136]

IC50 [1]	inhibition at 50 µM [2]	inhibition at 100 µM [2]	Compound
> 70 µM	< 25%	–	CCOC(=O)N1CCc2c(-c3ccccc3)ccc(NCC(=O)O)c2C1 [Compound 138]
50 to 70 µM	< 25%	–	CCOC(=O)CN(C(C)=O)c1ccc(-c2ccccc2)c2c1CN(C(=O)OCC)CC2 [Compound 139]
> 70 µM	< 25%	–	CCOC(=O)CNc1ccc(-c2ccccc2)c2c1CN(C(=O)OCC)CC2 [Compound 140]
> 70 µM	< 25%	–	CN1CCc2c(-c3ccccc3)cc(C(=O)O)c(N)c2C1 [Compound 141]
> 70 µM	< 25%	–	CC(=O)Nc1c(C(=O)O)cc(-c2ccccc2)c2c1CN(C)CC2 [Compound 144]
> 70 µM	< 25%	–	CCOC(=O)N1CCc2c(-c3ccccc3)cc(C(=O)CCl)c(N)c2C1 [Compound 149]
> 70 µM	< 25%	–	CN1CCc2c(-c3ccccc3)ccc(Nc3ncccc3C(=O)O)c2C1 [Compound 150]
> 70 µM	< 25%	–	CN1CCc2c(-c3ccccc3)ccc(NCCC(=O)O)c2C1 [Compound 151]
> 70 µM	–	> 50%	CCOC(=O)N1CCc2c(Br)ccc([N+](=O)[O-])c2C1 [Compound 157]
> 70 µM	< 25%	–	CCOC(=O)N1CCc2c(Br)ccc(NCC(=O)OC)c2C1 [Compound 158]
> 70 µM	20 to 40%	–	CCOC(=O)N1CCc2c(-c3ccccc3)ccc(N)c2C1 [Compound 159]
> 70 µM	–	30 to 50%	CCOC(=O)N1CCc2c(Br)ccc(N)c2C1 [Compound 160]
> 70 µM	20 to 40%	–	CCOC(=O)N1CCc2c(-c3ccccc3)ccc([N+](=O)[O-])c2C1 [Compound 161]
> 70 µM	< 25%	–	COC(=O)c1ccc(-c2ccccc2)c2c1CN(C(=O)OC(C)(C)C)CC2 [Compound 177]
> 70 µM	< 25%	–	COC(=O)c1cc(-c2ccccc2)c2c(c1C(=O)OC)CN(C(=O)OC(C)(C)C)CC2 [Compound 179]
> 70 µM	< 25%	–	CC(C)(C)OC(=O)N1CCc2c(-c3ccccc3)ccc(C(N)=O)c2C1 [Compound 181]
> 70 µM	< 25%	–	CC(C)(C)OC(=O)N1CCc2c(-c3ccccc3)ccc(C(=O)O)c2C1 [Compound 182]

Compound	IC50 [1]	inhibition at 50 µM [2]	inhibition at 100 µM [2]
CN1CCc2c(-c3ccccc3)ccc(CN)c2C1 [Compound 115]	> 70 µM	< 25%	–
CCOC(=O)CNCc1ccc(-c2ccccc2)c2c1CN(C)CC2 [Compound 118]	> 70 µM	< 25%	–
CCOC(=O)/C=N\c1ccc(-c2ccccc2)c2c1CN(C)CC2 [Compound 124]	> 70 µM	< 25%	–
CCOC(=O)CNc1ccc(-c2ccccc2)c2c1CN(C)CC2 [Compound 126]	20 to 40 µM	< 25%	–
CN1CCc2c(-c3ccccc3)cc(C(N)=O)c(N)c2C1 [Compound 128]	> 70 µM	< 25%	–
CN1CCc2c(-c3ccccc3)ccc(NC(=O)OC(C)(C)C)c2C1 [Compound 129]	50 to 70 µM	< 25%	–
CN1CCc2c(-c3ccccc3)ccc(NC(=O)CCO)c2C1 [Compound 131]	> 70 µM	< 25%	–
COC(=O)CCC(=O)Nc1ccc(-c2ccccc2)c2c1CN(C)CC2 [Compound 132]	> 70 µM	< 25%	–
CN1CCc2c(-c3ccccc3)ccc(NC(=O)CCCO)c2C1 [Compound 133]	> 70 µM	< 25%	–
COC(=O)CC(=O)Nc1ccc(-c2ccccc2)c2c1CN(C)CC2 [Compound 137]	> 70 µM	< 25%	–
COC(=O)c1cc(-c2ccccc2)c2c(c1N)CN(C)CC2 [Compound 142]	> 70 µM	< 25%	–
CN1CCc2c(-c3ccccc3)ccc(NCCO)c2C1 [Compound 143]	> 70 µM	< 25%	–
CN1CCc2c(-c3ccccc3)cc([N+](=O)[O-])c(N)c2C1 [Compound 155]	40 to 70 µM	< 25%	–
CC(=O)Nc1c(N)cc(-c2ccccc2)c2c1CN(C)CC2 [Compound 156]	> 70 µM	< 25%	–
CCOC(=O)C(=O)Nc1ccc(-c2ccccc2)c2c1CN(C)CC2 [Compound 162]	> 70 µM	< 25%	–
CN1CCc2c(-c3ccccc3)ccc(Br)c2C1 [Compound 172]	50 to 70 µM	< 25%	–
CN1CCc2c(-c3ccccc3)ccc(C#N)c2C1 [Compound 178]	> 70 µM	< 25%	–
COC(=O)c1cc(-c2ccccc2)c2c(c1C(=O)OC)CN(C)CC2 [Compound 180]	> 70 µM	< 25%	–
